Measurements reported in article PMC7315563, “Bioactive fluorenes. Part III: 2,7-dichloro-9H-fluorene-based thiazolidinone and azetidinone analogues as anticancer and antimicrobial against multidrug resistant strains agents” (BMC Chemistry, 2020).
In brackets after ≈: the same amount, converted by molar mass.

Tests used:
[1] = system: Staphylococcus aureus (S. aureus), multidrug resistant clinical isolate; test: agar well diffusion assay; format: cell-based; conditions: Staphylococcus aureus; S. aureus; 500 µg/mL of tested compound; 24 h
From the text: All microbial strains were kindly provided from the department of Medical Microbiology and Immunology faculty of Medicine Assiut University, these clinical isolates were obtained from clinical cases of infections admitted to Assiut University hospital as urinary tract infections, corneal ulcers, bacterial and fungal pneumonia, otomycosis, oral thrush and wound infections.
The clinical isolates used were multidrug resistant strains, they were resistant to β lactam (penicillin, amoxacillin, oxacillin), cephalosporins (cefazolin, cefaclor and cefepime) and macrolides (erythromycin and clarithromycin), they included Gram positive bacteria as Staphylococcus aureus (S. aureus), Methicillin-resistant Staphylococcus aureus (MRSA), Streptococcus pneumoniae (S. pneumoniae), and Gram negative bacteria as Escherichia coli (E. coli), Klebsiella pneumoniae (K. pneumoniae), Pseudomonas aeruginosa (P. aeruginosa), and Acinetobacter baumannii (A. baumannii). The fungal strains that were tested are Aspergillus flavus (A. flavus), A. niger (A. niger) and Candida albicans (C. albicans).
The antimicrobial activity of the fluorene derivatives was initially evaluated by agar well diffusion assay. Mueller–Hinton agar (CM0337) was poured into Petri dishes at 50–60 °C and left to solidify for 15 min. Subsequently, overnight microbial suspensions of tested strains was adjusted to turbidity of 0.5 McFarland Standard, which equals to 1–2 × 10^8 CFU/mL for bacteria and 1–5 × 10^6 for fungi. The microbial inoculums were then diluted in 1:100 ratio in case of bacteria and 1:10 ratio in case of fungi in order to get 1–5 × 10^5 CFU/mL. a sterile cotton swab was dipped into the adjusted microbial suspension and the Mueller–Hinton agar plates were inoculated by evenly streaking cotton swab over the agar medium. Then wells with a diameter of 0.5 cm were cut in the medium with a sterile cork borer. Stock solutions of the flourene derivatives were diluted in DMSO 1% to get 500 μg/mL concentrations. The tested flourene derivatives and controls (50 μL) were dispensed into the wells. The plates were incubated for 24 h at 37 °C for bacteria and C. albicans while at 25 °C for A. falvus and A. niger. The diameters of zones of inhibition (ZOI) around the wells were measured in mm. Following control agents were used: positive control agents—vancomycin (50 μg/mL) for Gram positive bacteria, gentamicin (10 μg/mL) (for Gram negative bacteria) and fluconazole 25 μg/mL for fungi and negative control agent is 1% DMSO.

[2] = system: MDA-MB-231 human breast cancer cells; test: cell viability assay (MTT); format: cell-based; conditions: 24 h; for viability at 1 µg/mL: read-out: Validity (%) for sample concentrations (µg/mL) 1; for viability at 10 µg/mL: read-out: Validity (%) for sample concentrations (µg/mL) 10; for viability at 31.25 µg/mL: read-out: Validity (%) for sample concentrations (µg/mL) 31.25; for viability at 62.5 µg/mL: read-out: Validity (%) for sample concentrations (µg/mL) 62.5; for viability at 125 µg/mL: read-out: Validity (%) for sample concentrations (µg/mL) 125; for viability at 250 µg/mL: read-out: Validity (%) for sample concentrations (µg/mL) 250; for viability at 500 µg/mL: read-out: Validity (%) for sample concentrations (µg/mL) 500
Procedure: (§1) WI-38 normal lung fibroblast cells, A549 lung cancer cells, and MDA-MB-231 breast cancer cells were obtained from VACSERA—Cell Culture Unit, Cairo, Egypt. The cell lines were originally obtained from the American Tissue Culture Collection (ATCC). WI-38, A549, and MDA-MB-231 cell lines were cultured in RPMI-1640 medium supplemented with 10% inactivate fetal bovine serum (FBS) and 1% penicillin/streptomycin were bought (Gibco, Invitrogen, CA). WI-38, A549, and MDA-MB-231 cells were seeded into 96-well plates (at a density of 5000 cells/well). On the following day, cells were treated with different concentrations (0, 1, 10, 31.25, 62.5, 125, 250, 500 µg/mL) of 16 fluorene derivatives in fresh medium and incubated for another 24 h. Cell viability was then assessed using the MTT assay (Sigma Aldrich, St. Louis, MO, USA), and the absorbance was read at 570 nm using an ELISA microplate reader (Molecular Devices, Downingtown, PA, USA).

[3] = system: WI-38 human normal fibroblast cells; test: cell viability assay (MTT); format: cell-based; conditions: 24 h; for viability at 31.25 µg/mL: read-out: Validity (%) for sample concentrations (µg/mL) 31.25; for viability at 62.5 µg/mL: 62.50 µg/mL, read-out: Validity (%) for sample concentrations (µg/mL) 62.50; for viability at 125 µg/mL: read-out: Validity (%) for sample concentrations (µg/mL) 125; for viability at 250 µg/mL: read-out: Validity (%) for sample concentrations (µg/mL) 250; for viability at 500 µg/mL: read-out: Validity (%) for sample concentrations (µg/mL) 500
Procedure: as §1

[4] = system: A549 human lung cancer cells; test: cell viability assay (MTT); format: cell-based; conditions: 24 h; for viability at 1 µg/mL: read-out: Validity (%) for sample concentrations (µg/mL) 1; for viability at 10 µg/mL: read-out: Validity (%) for sample concentrations (µg/mL) 10; for viability at 31.25 µg/mL: read-out: Validity (%) for sample concentrations (µg/mL) 31.25; for viability at 62.5 µg/mL: 62.50 µg/mL, read-out: Validity (%) for sample concentrations (µg/mL) 62.50; for viability at 125 µg/mL: read-out: Validity (%) for sample concentrations (µg/mL) 125; for viability at 250 µg/mL: read-out: Validity (%) for sample concentrations (µg/mL) 250; for viability at 500 µg/mL: read-out: Validity (%) for sample concentrations (µg/mL) 500; for viability at 1000 µg/mL: read-out: Validity (%) for sample concentrations (µg/mL) 1000
Procedure: as §1, with “On the following day, cells were treated with different concentrations (0, 1, 10, 31.25, 62.5, 125, 250, 500 µg/mL) of 16 fluorene derivatives in fresh medium and incubated for another 24 h.” left out

Compound	viability at 1 µg/mL [2] [%]	viability at 10 µg/mL [2] [%]	viability at 31.25 µg/mL [2] [%]	viability at 62.5 µg/mL [2] [%]	viability at 125 µg/mL [2] [%]	viability at 250 µg/mL [2] [%]	viability at 500 µg/mL [2] [%]	IC50 [2] [µg/mL]	viability at 31.25 µg/mL [3] [%]	viability at 62.5 µg/mL [3] [%]	viability at 125 µg/mL [3] [%]	viability at 250 µg/mL [3] [%]	viability at 500 µg/mL [3] [%]	IC50 [3] [µg/mL]	viability at 1 µg/mL [4] [%]	viability at 10 µg/mL [4] [%]	viability at 31.25 µg/mL [4] [%]	viability at 62.5 µg/mL [4] [%]	viability at 125 µg/mL [4] [%]	IC50 [4] [µg/mL]	other results
O=C1CSC(c2ccccc2)N1c1nc(-c2cc(Cl)cc3c2-c2ccc(Cl)cc2C3)cs1 (centres unmarked) [5a, 3-(4-(2,7-Dichloro-9H-fluoren-4-yl)thiazol-2-yl)-2-phenylthiazolidin-4-one]	98.3	96.7	93.6	86.1	85.9	82.5	75.8	> 500	89.8	83.3	80.6	77.3	74.3	> 500	95.6	91.4	86.8	82.3	79.7	413 (≈ 834 µM)	zone of inhibition at 500 µg/mL [1]: 3 mm; viability at 250 µg/mL [4]: 75.4%; viability at 500 µg/mL [4]: 45.5%; viability at 1000 µg/mL [4]: 12.5%; melting point: 79 to 82 °C
COc1ccc(C2SCC(=O)N2c2nc(-c3cc(Cl)cc4c3-c3ccc(Cl)cc3C4)cs2)cc1 (centres unmarked) [5b, 3-(4-(2,7-Dichloro-9H-fluoren-4-yl)thiazol-2-yl)-2-(4-methoxyphenyl)thiazolidin-4-one]	97.8	97.4	90.8	88.6	87.3	83.6	81.5	> 500	99.4	94.4	91.3	81.2	79	> 500	91.2	85.4	84	67.8	64.3	402 (≈ 765 µM)	zone of inhibition at 500 µg/mL [1]: 4 mm; viability at 250 µg/mL [4]: 57.1%; viability at 500 µg/mL [4]: 44.2%; viability at 1000 µg/mL [4]: 17.8%; melting point: 74 to 76 °C
CN(C)c1ccc(C2SCC(=O)N2c2nc(-c3cc(Cl)cc4c3-c3ccc(Cl)cc3C4)cs2)cc1 (centres unmarked) [5e, 3-(4-(2,7-Dichloro-9H-fluoren-4-yl)thiazol-2-yl)-2-(4-(dimethylamino)phenyl)thiazolidin-4-one]	97.3	96.3	93.6	92.6	85.5	75.9	73.7	> 500	92.4	85.7	74.4	69.3	62.9	> 500	93.4	90.2	85.6	77.3	72.2	847 (≈ 1570 µM)	viability at 250 µg/mL [4]: 65.7%; viability at 500 µg/mL [4]: 62.2%; viability at 1000 µg/mL [4]: 48.9%; melting point: 94 to 96 °C
O=C1CSC(c2ccc([N+](=O)[O-])cc2)N1c1nc(-c2cc(Cl)cc3c2-c2ccc(Cl)cc2C3)cs1 (centres unmarked) [5f, 3-(4-(2,7-Dichloro-9H-fluoren-4-yl)thiazol-2-yl)-2-(4-nitrophenyl)thiazolidin-4-one]	98.1	97.2	89	84.7	81	79.6	77.5	> 500	82.5	81.9	77	74.3	67.8	> 500	95	89.8	87	83.8	79.2	567 (≈ 1050 µM)	viability at 250 µg/mL [4]: 75.4%; viability at 500 µg/mL [4]: 65.5%; viability at 1000 µg/mL [4]: 12.6%; melting point: 90 to 92 °C
O=C1CSC(c2cccs2)N1c1nc(-c2cc(Cl)cc3c2-c2ccc(Cl)cc2C3)cs1 (centres unmarked) [5k, 3-(4-(2,7-Dichloro-9H-fluoren-4-yl)thiazol-2-yl)-2-(thiophen-2-yl)thiazolidin-4-one]	92.3	85.8	68.7	60.8	56.7	50.6	43	330 (≈ 658 µM)	80.8	71.4	64.8	51.4	41.9	288 (≈ 574 µM)	95.2	92.3	85.9	83.9	79.6	613 (≈ 1220 µM)	viability at 250 µg/mL [4]: 76.9%; viability at 500 µg/mL [4]: 60.9%; viability at 1000 µg/mL [4]: 22.6%; melting point: 165 to 167 °C
O=C(O)c1ccc(C2C(Cl)C(=O)N2c2nc(-c3cc(Cl)cc4c3-c3ccc(Cl)cc3C4)cs2)cc1 (centres unmarked) [6g, 4-(3-Chloro-1-(4-(2,7-dichloro-9H-fluoren-4-yl)thiazol-2-yl)-4-oxoazetidin-2-yl)benzoic acid]	96.7	93.9	91.2	82.9	71.1	65.5	55.6	> 500	73.9	42	37.4	35.7	30.6	40 (≈ 73.8 µM)	94.5	90.1	86.9	73.5	68.9	308 (≈ 568 µM)	viability at 250 µg/mL [4]: 63.1%; viability at 500 µg/mL [4]: 18.4%; viability at 1000 µg/mL [4]: 14.4%; melting point: 125 to 127 °C
CC(=O)O[C@H]1C(=O)[C@@]2(C)[C@H]([C@H](OC(=O)c3ccccc3)[C@]3(O)C[C@H](OC(=O)[C@H](O)[C@@H](NC(=O)c4ccccc4)c4ccccc4)C(C)=C1C3(C)C)[C@]1(OC(C)=O)CO[C@@H]1C[C@@H]2O [Taxol, reference compound]								40 (≈ 46.8 µM)						41 (≈ 48 µM)						2.3 (≈ 2.69 µM)	
